Reference: article PMC11091220, “Metabolism-driven in vitro/in vivo disconnect of an oral ERɑ VHL-PROTAC” (Communications Biology, 2024)
“And” between values parts separate entries of the source, which are not always exact repeats. Identical values can stand only once.

Legend:
[1] = target: T1, ERα (Homo sapiens, UniProt P03372); assay: ERα degradation in a panel of ER+ cell lines (western blot); assay type: cell-based; conditions: 100 nM; for ERa degradation vs vehicle: 48 h, listed as AZ'6421
T1 construct: endogenous in cells; host or cells: MCF7 (also MCF7 engineered to express Cas9)
T1 sequence (P03372 1-595): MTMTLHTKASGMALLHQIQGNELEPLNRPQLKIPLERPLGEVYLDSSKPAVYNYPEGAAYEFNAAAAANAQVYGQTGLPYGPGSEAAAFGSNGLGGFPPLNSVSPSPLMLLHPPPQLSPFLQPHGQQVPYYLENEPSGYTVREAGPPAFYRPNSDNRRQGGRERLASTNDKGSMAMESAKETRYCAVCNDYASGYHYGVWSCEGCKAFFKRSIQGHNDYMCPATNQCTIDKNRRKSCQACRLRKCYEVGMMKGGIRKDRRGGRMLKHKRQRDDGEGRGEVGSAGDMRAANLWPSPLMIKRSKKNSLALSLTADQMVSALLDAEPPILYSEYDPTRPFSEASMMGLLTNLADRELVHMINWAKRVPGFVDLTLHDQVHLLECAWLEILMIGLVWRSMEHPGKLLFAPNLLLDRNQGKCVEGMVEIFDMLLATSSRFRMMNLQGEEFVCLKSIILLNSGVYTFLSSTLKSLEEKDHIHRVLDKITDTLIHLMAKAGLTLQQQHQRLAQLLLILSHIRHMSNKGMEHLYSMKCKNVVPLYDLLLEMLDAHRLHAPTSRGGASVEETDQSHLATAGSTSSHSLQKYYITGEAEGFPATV
Description: Fig. 3 AZ’6421 potently degrades ERα and inhibits ER-regulated gene transcription. a MCF7 cells were treated with increasing concentrations of AZ’6421 for 24 h and probed for ERα by immunoblot analysis. b SILAC experiment to measure ERα peptide turnover in MCF7 cells. Cells cultured in the presence of heavy L-arginine were switched at time T = 0 to media containing light L-arginine plus 0.1% DMSO, 1 µM AZ’6421, or 1 µM fulvestrant. Cells were collected at the indicated timepoints and the proportion of heavy-labelled ERα assessed by mass spectrometry. % ERα heavy peptide is plotted relative to DMSO control. Data points show the mean of 3 independent experiments with points in bold representing the mean. c A panel of ER+ cells were treated with 100 nM AZ’6421 for 48 h. ERα was normalised to vinculin and expressed as % of vehicle control. Data points represent an independent experiment for each cell line, error bars indicate ± s.e.m. d Heatmap showing changes in mRNA expression of a panel of ER-regulated genes. MCF7 and CAMA1 cells were stimulated with 0.1 nM estradiol in the presence of DMSO, 100 nM fulvestrant (Fulv), 100 nM AZD9833, or 100 nM AZ’6421 for 24 hours. Data points show 3 independent experiments. e Growth inhibition curves for MCF7 and CAMA1 cells, treated with increasing concentrations of AZ’6421 for 6 days. Data points show 4–5 independent experiments, bold points represent the mean. TEXT PRINTED IN THE PICTURE: (c) no label printed: Mean % ER Degradation, MCF-7: 96; Mean % ER Degradation, CAMA-1: 92; Mean % ER Degradation, ZR75-1: 95; Mean % ER Degradation, MDA-MB-134: 99; Mean % ER Degradation, BT474: 83; Mean % ER Degradation, HCC1428: 92; Mean % ER Degradation, T47D: 87 DOUBTS OF THE COPYIST ABOUT THIS PICTURE: Panel c prints no substance label for the Mean % ER Degradation values, so the substance is left empty.
Cells were seeded into 12-well tissue culture-treated plates at 0.5 x 10^6 cells/well in phenol red-free RPMI containing 5% (v/v) charcoal-stripped FBS (F6765, Sigma) and left to adhere overnight. In experiments to detect agonism or for SILAC experiments, FBS was double stripped using activated charcoal. […] Expression levels of proteins were determined by standard western blotting techniques (BioRad 4%-12% Bis-Tris gels). Antibodies were diluted in 5% milk-PBS-Tween and protein levels were detected using Pierce WestDura chemiluminescent reagents followed by visualisation and quantification on a Syngene ChemiGenius Imager. Where blots were quantified, protein levels were normalised to beta-actin or vinculin control and expressed as % of vehicle control.

[2] = tested on: MCF7 cells; assay: Cell proliferation assay (Sytox Green), MCF7; assay type: cell-based; conditions: Homo sapiens, 144 h; MCF7, 6 days; read-out: growth inhibition IC50
Description: Cell proliferation was assessed by measuring live cell numbers using the Sytox Green assay. MCF7 and CAMA1 cells were seeded in 96-well clear-bottom black microplates (Costar) at 4x10^3 and 8x10^3 cells per well, respectively, based on the doubling time of each cell line. Plates were incubated at 37 °C, 5% CO2 for 24 hours prior to being treated with DMSO, AZ’6421 or fulvestrant in a 10-point concentration range, with a final DMSO concentration of 0.1%. A single plate was left untreated, designated a Day 0 plate. The number of live cells was determined at Day 0 and Day 7 using the Sytox green assay. Briefly, 5 mM Sytox green nucleic acid dye (Invitrogen) was diluted 1:2500 in 500 mM tris-buffered saline (TBS) with ethylenediaminetetraacetic acid (EDTA) and 7 μL was added per well. Plates were then incubated in the dark at room temperature for 1 hour and the number of green cells in each well (dead cells) was measured using an Acumen Explorer high-throughput cell imager (TTP Labtech). Next, 14 μL of 0.25% w/v Saponin in TBS/EDTA solution was added overnight to permeabilize the cells, permitting a total cell count. The number of live cells was calculated by subtracting the dead cell count from the total cell count. The data obtained were then used to perform curve fitting analysis using GraphPad Prism. Average cell counts from the Day 0 plate were used to determine 0% cell growth. […]

[3] = Metabolite identification in mouse hepatocytes; assay type: in vitro ADME; conditions: in vitro mouse hepatocytes
Description: CD-1 male mouse hepatocytes (BioreclamationIVT, M005052, lot:LRH) were thawed and warmed to 37 °C using Lebovitz’s L-15 medium and Cell yield/cell density and viability were assessed by a Nexcelom cell counter.
Incubations were conducted on a Hamilton robot, 0.25 mL of the hepatocyte suspension (1 million cells/mL) was transferred for each incubation into Nunc 96-deepwell plate. Substrate (2.5 µL of 0.5 mM in acetonitrile) was added (final concentration of 5 µM) and then incubated for 60 minutes at 37 °C. The samples were quenched with an equal volume of acetonitrile, spun at 3500 rpm for 10 minutes and 0.2 mL of the supernatant was transferred into 0.6 mL of water for analysis by UHPLC-UV-HRAMS.

Cc1ncsc1-c1ccc(CNC(=O)[C@@H]2C[C@@H](O)CN2C(=O)[C@@H](NC(=O)COCCCOCCCOc2cc(F)c([C@@H]3c4[nH]c5ccccc5c4C[C@@H](C)N3CC(C)(C)F)c(F)c2)C(C)(C)C)cc1 [Compound 5]
ERα protein abundance, % of the vehicle ([1]; all cell lines tested): less than 20%
ERa degradation vs vehicle ([1]; BT474): 4.37 and 5.82
ERa degradation vs vehicle ([1]; HCC1428): 9.04 and 6.44
ERa degradation vs vehicle ([1]; MDA-MB-134): 1.1 and 1.64
IC50 [2]: 0.5 nM
major metabolic liability [3]: formation of a carboxylic acid metabolite 8
